# Measured values published in patent publication US20100063008A1, “GELATINOUS ELASTOMER COMPOSITIONS” (Silipos, Inc., priority 2008, published 2010).
# Columns and labels:
# [1] = Total weight of exudate (oil) absorbed by filter paper blotter discs and theoretical amount of each ingredient exuded; type: physicochemical
# Method: (§1) Exposure Conditions: 37-40 deg. C., Sample filter paper discs in contact with gel specimens of same diameter were stacked in […]. aluminum petri dishes, gel specimen diameter 2.625″×0.125″ thick, filter paper disc diameter 2.625″ with another petri dish and a 1 kg dead weight on top of stack. Pressure calculated at ˜0.407 psi. (2.8 Mpa) constant. Two replicates per test condition. Repeat exposures at 3 hours then repeat three exposures of 18 hours each, changing discs but keeping same gel specimen and same side of each gel specimen in contact with each successive filter paper disc sample.
# Data was calculated to determine the total weight of exudate absorbed by each individual sample filter paper blotter disc test specimen. Calculations were then performed based upon the ratios of ingredients in the gel disc formula to determine the theoretical amount of each ingredient that could have been exuded from the oil if the oil contained the same ratio of ingredients as contained in the control oil sample and in the gel.
# [2] = Exudation of active agents from gel specimens to filter paper discs, quantified by UV, MS, GC and/or HPLC after extraction; type: physicochemical; conditions: for Active Agent Transferred from Gel to Filters: 37° C., 0.40 psi; for Total Active Agent Exuded from Gel: cumulative
# Method: Sample filter paper discs were placed in contact with gel specimens of same diameter under constant low pressure (0.40 psi. (2.8 Mpa)) at 37° C. Multiple time-controlled exposures of the filter paper to the gel were preformed in succession to same side of gel. Quantification of active agent transferred to the filter paper discs was determined by UV, MS, GC and or HPLC analysis after extraction of active agent from the filter paper. Exudation rates was expressed as μg/unit time per unit surface area.
# This compound was then divided into three aliquots' of approximately 10 grams each and poured into a 2.625″ diameter aluminum petri dish and allowed to cool to create individual gel samle discs. Subsequently, absorbent cellulose filter blotter paper was die cut to enough 2.625″ diameter discs to be employed as a wicking media for repeated exposure in direct contact with the gel compound under specific conditions as follows.
# as §1
# The filter paper disc specimens aa through kk were then sent to an analytical laboratory for HPLC and GC analysis along with a small sample of each individual raw ingredient so that the HPLC and GC equipment could be calibrated for the protocol being employed by the lab. This calibration allowed for determining the maximum recoverable (measurable) amount of each ingredient that could be measured using these techniques and would later be used to correct the data. The analytical laboratory then detected and measured the amount of each of the added active agents that was flushed out of the filter paper discs using wet chemistry techniques known to those skilled in the art.
# The analytical data was interpreted, and the amounts of each ingredient which was exuded into each filter paper blotter disc specimen, and subsequently extracted using wet chemistry, were then entered into a data analysis spreadsheet and adjusted based on the Analytical Recovery Rate to determine actual concentration of each ingredient extracted.
# [3] = Gel Specimen Number 1, 1 h filter exposure, time 0-1 h
# [4] = Gel Specimen Number 1, 3 h filter exposure, time 1-4 h
# [5] = Gel Specimen Number 1, 18 h filter exposure, time 4-22 h
# [6] = Gel Specimen Number 1, 18 h filter exposure, time 22-40 h
# [7] = Gel Specimen Number 1, 18 h filter exposure, time 40-58 h
# [8] = Gel Specimen Number 1, Time 1 h
# [9] = Gel Specimen Number 1, Time 4 h
# [10] = Gel Specimen Number 1, Time 22 h
# [11] = Gel Specimen Number 1, Time 40 h
# [12] = Gel Specimen Number 1, Time 58 h
# [13] = Gel Specimen Number 2, 1 h filter exposure, time 0-1 h
# [14] = Gel Specimen Number 2, 3 h filter exposure, time 1-4 h
# [15] = Gel Specimen Number 2, 18 h filter exposure, time 4-22 h
# [16] = Gel Specimen Number 2, 18 h filter exposure, time 22-40 h
# [17] = Gel Specimen Number 2, 18 h filter exposure, time 40-58 h
# [18] = Gel Specimen Number 2, Time 1 h
# [19] = Gel Specimen Number 2, Time 4 h
# [20] = Gel Specimen Number 2, Time 22 h
# [21] = Gel Specimen Number 2, Time 40 h
# [22] = Gel Specimen Number 2, Time 58 h
# [23] = Specimen aa, Hours 1, Cummulative Hours 1
# [24] = Specimen bb, Hours 1, Cummulative Hours 1
# [25] = Specimen cc, Hours 3, Cummulative Hours 4
# [26] = Specimen dd, Hours 3, Cummulative Hours 4
# [27] = Specimen ee, Hours 18, Cummulative Hours 22
# [28] = Specimen ff, Hours 18, Cummulative Hours 22
# [29] = Specimen gg, Hours 18, Cummulative Hours 40
# [30] = Specimen hh, Hours 18, Cummulative Hours 40
# [31] = Specimen ii, Hours 18, Cummulative Hours 58
# [32] = Specimen kk, Hours 18, Cummulative Hours 58
Compound,"Active Agent Transferred from Gel to Filters [2, 3] [μg per filter]","Active Agent Transferred from Gel to Filters [2, 4] [μg per filter]","Active Agent Transferred from Gel to Filters [2, 5] [μg per filter]","Active Agent Transferred from Gel to Filters [2, 6] [μg per filter]","Active Agent Transferred from Gel to Filters [2, 7] [μg per filter]","Total Active Agent Exuded from Gel [2, 8] [µg]","Total Active Agent Exuded from Gel [2, 9] [µg]","Total Active Agent Exuded from Gel [2, 10] [µg]","Total Active Agent Exuded from Gel [2, 11] [µg]","Total Active Agent Exuded from Gel [2, 12] [µg]","Active Agent Transferred from Gel to Filters [2, 13] [μg per filter]","Active Agent Transferred from Gel to Filters [2, 14] [μg per filter]","Active Agent Transferred from Gel to Filters [2, 15] [μg per filter]","Active Agent Transferred from Gel to Filters [2, 16] [μg per filter]","Active Agent Transferred from Gel to Filters [2, 17] [μg per filter]","Total Active Agent Exuded from Gel [2, 18] [µg]","Total Active Agent Exuded from Gel [2, 19] [µg]","Total Active Agent Exuded from Gel [2, 20] [µg]","Total Active Agent Exuded from Gel [2, 21] [µg]","Total Active Agent Exuded from Gel [2, 22] [µg]",further results
"COC(=O)c1ccccc1O [Methyl Salicylate, reference compound]",1005,1694,4812,5165,3882,1005,2699,7511,12675,16558,1753,2506,4847,4271,3729,1753,4259,9106,13376,17106,"Estimated grams of ingredient exuded (theoretical amount from ratios of ingredients in the gel disc formula) ([1]; Sample aa, Test Disc 1, Exposed 1 hours): 0.0022 grams; Estimated grams of ingredient exuded (theoretical amount from ratios of ingredients in the gel disc formula) ([1]; Sample bb, Test Disc 1 Replicate, Exposed 1 hours): 0.0031 grams; Estimated grams of ingredient exuded (theoretical amount from ratios of ingredients in the gel disc formula) ([1]; Sample cc, Test Disc 2, Exposed 3 hours): 0.0024 grams; Estimated grams of ingredient exuded (theoretical amount from ratios of ingredients in the gel disc formula) ([1]; Sample dd, Test Disc 2 Replicate, Exposed 3 hours): 0.0035 grams; Estimated grams of ingredient exuded (theoretical amount from ratios of ingredients in the gel disc formula) ([1]; Sample ee, Test Disc 3, Exposed 18 hours): 0.0062 grams; Estimated grams of ingredient exuded (theoretical amount from ratios of ingredients in the gel disc formula) ([1]; Sample ff, Test Disc 3 Replicate, Exposed 18 hours): 0.0062 grams; Estimated grams of ingredient exuded (theoretical amount from ratios of ingredients in the gel disc formula) ([1]; Sample gg, Test Disc 4, Exposed 18 hours): 0.0064 grams; Estimated grams of ingredient exuded (theoretical amount from ratios of ingredients in the gel disc formula) ([1]; Sample hh, Test Disc 4 Replicate, Exposed 18 hours): 0.0057 grams; Estimated grams of ingredient exuded (theoretical amount from ratios of ingredients in the gel disc formula) ([1]; Sample ii, Test Disc 5, Exposed 18 hours): 0.0051 grams; Estimated grams of ingredient exuded (theoretical amount from ratios of ingredients in the gel disc formula) ([1]; Sample kk, Test Disc 5 Replicate, Exposed 18 hours): 0.0051 grams; Quantitative Analysis - Islechem u-gram extraction [2, 23]: 854 u-gram; Quantitative Analysis - Islechem u-gram extraction [2, 24]: 1490 u-gram; Quantitative Analysis - Islechem u-gram extraction [2, 25]: 1440 u-gram; Quantitative Analysis - Islechem u-gram extraction [2, 26]: 2130 u-gram; Quantitative Analysis - Islechem u-gram extraction [2, 27]: 4090 u-gram; Quantitative Analysis - Islechem u-gram extraction [2, 28]: 4120 u-gram; Quantitative Analysis - Islechem u-gram extraction [2, 29]: 4390 u-gram; Quantitative Analysis - Islechem u-gram extraction [2, 30]: 3630 u-gram; Quantitative Analysis - Islechem u-gram extraction [2, 31]: 3300 u-gram; Quantitative Analysis - Islechem u-gram extraction [2, 32]: 3170 u-gram"
"O=C(O)c1ccccc1O [Salicylic Acid, reference compound]",372,793,4765,6600,4035,372,1165,5929,12529,16565,705,1459,5153,4976,3941,705,2164,7316,12293,16234,
Ceramide III,18,18,25,29,10,18,35,60,89,99,20,24,22,13,20,20,43,65,78,98,"Quantitative Analysis - Islechem u-gram extraction [2, 23]: 17 u-gram; Quantitative Analysis - Islechem u-gram extraction [2, 24]: 19 u-gram; Quantitative Analysis - Islechem u-gram extraction [2, 25]: 17 u-gram; Quantitative Analysis - Islechem u-gram extraction [2, 26]: 23 u-gram; Quantitative Analysis - Islechem u-gram extraction [2, 27]: 24 u-gram; Quantitative Analysis - Islechem u-gram extraction [2, 28]: 21 u-gram; Quantitative Analysis - Islechem u-gram extraction [2, 29]: 28 u-gram; Quantitative Analysis - Islechem u-gram extraction [2, 30]: 13 u-gram; Quantitative Analysis - Islechem u-gram extraction [2, 31]: 9.6 u-gram; Quantitative Analysis - Islechem u-gram extraction [2, 32]: 19 u-gram"
